Assay results from PubChem BioAssay AID248 (DTP/NCI, 2004).
Values joined by “and” are separate entries in the source; they are usually repeats but may differ in a detail not shown here. Identical values can stand only once. Toxic doses and inconclusive results are not listed. Rule as the data show it: active = T/C of 150% or more; inactive = T/C below 125%.

Test system: L1210 leukemia ip in BDF1 mice, survival T/C
Experiment: NCI In Vivo Anticancer Drug Screen. Data for tumor model L1210 Leukemia (intraperitoneal) in B6D2F1 (BDF1) mice
Details: endpoint: mean survival time, higher = longer survival
Summary of the method: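 Value reflects the ratio of survival in compound-treated mice to survival in vehicle-treated controls, with both groups carrying the same transplanted tumor.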

[1] = dose: 100.0 mg/kg/injection, schedule: Q01DX001 (ip), vehicle: carboxymethylcellulose (CMC)
[2] = dose: 200.0 mg/kg/injection, schedule: Q01DX001 (ip), vehicle: carboxymethylcellulose (CMC)
[3] = dose: 400.0 mg/kg/injection, schedule: Q01DX001 (ip), vehicle: carboxymethylcellulose (CMC)
[4] = dose: 100.0 mg/kg/injection, schedule: Q01DX001 (ip), vehicle: saline
[5] = dose: 200.0 mg/kg/injection, schedule: Q01DX001 (ip), vehicle: saline
[6] = dose: 400.0 mg/kg/injection, schedule: Q01DX001 (ip), vehicle: saline
[7] = dose: 100.0 mg/kg/injection, schedule: Q04DX002 (ip), vehicle: Klucel (hydroxypropylcellulose) (HPC)
[8] = dose: 200.0 mg/kg/injection, schedule: Q04DX002 (ip), vehicle: Klucel (hydroxypropylcellulose) (HPC)
[9] = dose: 400.0 mg/kg/injection, schedule: Q04DX002 (ip), vehicle: Klucel (hydroxypropylcellulose) (HPC)
[10] = dose: 100.0 mg/kg/injection, schedule: Q01DX009 (ip), vehicle: saline
[11] = dose: 50.0 mg/kg/injection, schedule: Q01DX001 (ip), vehicle: carboxymethylcellulose (CMC)
[12] = dose: 100.0 mg/kg/injection, schedule: Q04DX003 (ip), vehicle: Klucel (hydroxypropylcellulose) (HPC)
[13] = dose: 200.0 mg/kg/injection, schedule: Q04DX003 (ip), vehicle: Klucel (hydroxypropylcellulose) (HPC)
[14] = dose: 100.0 mg/kg/injection, schedule: Q01DX009 (ip), vehicle: saline with Tween-80
[15] = dose: 400.0 mg/kg/injection, schedule: Q04DX003 (ip), vehicle: Klucel (hydroxypropylcellulose) (HPC)

Measured: T/C

C=C1N2CCC(CC2)C1(O)c1ccccc1 (configuration not stated)
inactive: dose: 3.13 mg/kg/injection, schedule: Q04DX003 (ip), vehicle: saline 92 % of control | dose: 6.25 mg/kg/injection, schedule: Q04DX003 (ip), vehicle: saline 103 % of control | dose: 12.5 mg/kg/injection, schedule: Q04DX003 (ip), vehicle: Klucel (hydroxypropylcellulose) (HPC) 103 % of control | dose: 12.5 mg/kg/injection, schedule: Q04DX003 (ip), vehicle: saline 97 % of control

O=C1c2ccccc2C(=O)c2c1ccc1c2[nH]c2ccccc21
inactive: [1] 86 % of control | [2] 91 % of control | [3] 89 % of control

c1ccc(C[Se]Cc2ccccc2)cc1
inactive: dose: 100.0 mg/kg/injection, schedule: Q04DX003 (ip), vehicle: other 92 % of control

Oc1ccc(O)c(-c2ccccc2)c1
inactive: [1] 93 % of control | [2] 101 % of control

CC(C)(O)C(Cc1ccccc1)c1ccccc1 (configuration not stated)
inactive: dose: 6.25 mg/kg/injection, schedule: Q04DX002 (ip), vehicle: saline with Tween-80 91 % of control | dose: 12.5 mg/kg/injection, schedule: Q04DX002 (ip), vehicle: saline with Tween-80 98 % of control | dose: 25.0 mg/kg/injection, schedule: Q04DX002 (ip), vehicle: saline with Tween-80 102 % of control

Cc1ccc(S(=O)(=O)C2CCCC2Cl)cc1 (configuration not stated)
inactive: [1] 109 % of control | [4] 107 % of control | [2] 104 % of control | [5] 104 % of control | [3] 104 % of control | [6] 87 % of control

Cc1ccc(C(O)c2nnc(C(O)c3ccc(C)cc3)nn2)cc1 (configuration not stated)
inactive: [7] 88 % of control and 107 % of control and 100 % of control | [8] 100 % of control and 96 % of control | [9] 96 % of control and 100 % of control

CCOC(=O)c1ccc(NS(=O)(=O)c2ccc(NC(C)=O)cc2)cc1
inactive: [7] 88 % of control | [8] 94 % of control | [9] 103 % of control

O=[N+]([O-])c1ccc(-n2nccn2)cc1
inactive: dose: 75.0 mg/kg/injection, schedule: Q01DX001 (ip), vehicle: other 100 % of control | dose: 150.0 mg/kg/injection, schedule: Q01DX001 (ip), vehicle: other 107 % of control

C/C(CCc1ccccc1)=N/N(C)C
inactive: [4] 97 % of control | [10] 94 % of control | [5] 95 % of control | dose: 200.0 mg/kg/injection, schedule: Q01DX009 (ip), vehicle: saline 91 % of control | [6] 96 % of control

Clc1ncnc2scnc12
inactive: [11] 102 % of control | [1] 91 % of control | [2] 98 % of control

C=CCn1c(=O)n(CC=C)c(=O)n(CC=C)c1=O
inactive: [4] 108 % of control | dose: 100.0 mg/kg/injection, schedule: Q04DX003 (ip), vehicle: carboxymethylcellulose (CMC) 106 % of control | [5] 102 % of control | dose: 200.0 mg/kg/injection, schedule: Q04DX003 (ip), vehicle: carboxymethylcellulose (CMC) 92 % of control | [6] 104 % of control | dose: 400.0 mg/kg/injection, schedule: Q04DX003 (ip), vehicle: carboxymethylcellulose (CMC) 95 % of control

CCN(CC)CCOC(=O)c1[nH]cnc1N
inactive: [4] 96 % of control | [5] 104 % of control | [6] 96 % of control

c1cc[n+](Cc2nc3ccccc3[nH]2)cc1
inactive: [4] 102 % of control and 95 % of control

O=C(O)c1c[nH]c(=O)c([N+](=O)[O-])c1
inactive: dose: 50.0 mg/kg/injection, schedule: Q04DX003 (ip), vehicle: Klucel (hydroxypropylcellulose) (HPC) 97 % of control | [12] 91 % of control | [13] 92 % of control

CCCCCCCCCCCCC/C=N\N=C(N)N
inactive: dose: 15.0 mg/kg/injection, schedule: Q01DX Z (ip), vehicle: saline 96 % of control | dose: 30.0 mg/kg/injection, schedule: Q01DX Z (ip), vehicle: saline 89 % of control | dose: 60.0 mg/kg/injection, schedule: Q01DX Z (ip), vehicle: saline 89 % of control | dose: 60.0 mg/kg/injection, schedule: Q01DX Z (oral), vehicle: saline 98 % of control | dose: 120.0 mg/kg/injection, schedule: Q01DX Z (ip), vehicle: saline 96 % of control | dose: 120.0 mg/kg/injection, schedule: Q01DX Z (oral), vehicle: saline 101 % of control | dose: 240.0 mg/kg/injection, schedule: Q01DX Z (oral), vehicle: saline 101 % of control | dose: 480.0 mg/kg/injection, schedule: Q01DX Z (oral), vehicle: saline 98 % of control

CCN(CC)CC(=O)NCC(CCN1CCCCC1)(c1cccc2ccccc12)C(C)C (configuration not stated)
inactive: dose: 25.0 mg/kg/injection, schedule: Q01DX009 (ip), vehicle: saline 101 % of control | dose: 50.0 mg/kg/injection, schedule: Q01DX009 (ip), vehicle: saline 115 % of control | [10] 112 % of control

CC(C)(C)C(=O)NCc1ccccc1
inactive: dose: 100.0 mg/kg/injection, schedule: Q01DX001 (ip), vehicle: saline with Tween-80 100 % of control | dose: 200.0 mg/kg/injection, schedule: Q01DX001 (ip), vehicle: saline with Tween-80 96 % of control | dose: 400.0 mg/kg/injection, schedule: Q01DX001 (ip), vehicle: saline with Tween-80 96 % of control

C/C=C\C1OC1(C)c1cc(=O)c2c(C)cc3c(c2o1)C(=O)c1c(O)c(C2CC(C)(N(C)C)C(OC(C)=O)C(C)O2)cc(C2CC(N(C)C)C(O)C(C)O2)c1C3=O (configuration not stated)
inactive: dose: 0.35 mg/kg/injection, schedule: Q01DX009 (ip), vehicle: saline with Tween-80 103 % of control | dose: 0.7 mg/kg/injection, schedule: Q01DX009 (ip), vehicle: saline with Tween-80 102 % of control | dose: 1.4 mg/kg/injection, schedule: Q01DX009 (ip), vehicle: saline with Tween-80 96 % of control | dose: 2.8 mg/kg/injection, schedule: Q01DX009 (ip), vehicle: saline with Tween-80 88 % of control

O=C(O)C(Br)C(Br)C(=O)Nc1cccc2ccccc12 (configuration not stated)
inactive: dose: 25.0 mg/kg/injection, schedule: Q01DX009 (ip), vehicle: saline with Tween-80 97 % of control | dose: 50.0 mg/kg/injection, schedule: Q01DX009 (ip), vehicle: saline with Tween-80 96 % of control | [14] 96 % of control and 98 % of control

CCOC(=O)c1ccc(NC(=S)NC(=O)c2ccco2)cc1
inactive: [14] 98 % of control | [12] 102 % of control | dose: 200.0 mg/kg/injection, schedule: Q01DX009 (ip), vehicle: saline with Tween-80 98 % of control | [13] 98 % of control | dose: 400.0 mg/kg/injection, schedule: Q01DX009 (ip), vehicle: saline with Tween-80 98 % of control | [15] 96 % of control

COc1ccc(CN2CCCN(Cc3ccc(OC)cc3OC)C2c2ccc(N(CCCl)CCCl)cc2Cl)c(OC)c1
inactive: [11] 101 % of control | [1] 95 % of control | [2] 98 % of control | [3] 101 % of control

Cc1ccc(S(=O)(=O)N(C)c2ccc(N(C)S(=O)(=O)c3ccc(C)cc3)cc2)cc1
inactive: [12] 97 % of control | [13] 97 % of control | [15] 97 % of control

O=C(Nc1ccc(Cl)cc1)C(=O)Nc1ccc(Cl)cc1
inactive: dose: 100.0 mg/kg/injection, schedule: Q04DX002 (ip), vehicle: gum acacia 107 % of control | dose: 200.0 mg/kg/injection, schedule: Q04DX002 (ip), vehicle: gum acacia 89 % of control | dose: 400.0 mg/kg/injection, schedule: Q04DX002 (ip), vehicle: gum acacia 93 % of control

O=C(NC(c1ccccc1)C(O)c1ccccc1)c1ccc([N+](=O)[O-])cc1 (configuration not stated)
inactive: [11] 96 % of control | [1] 93 % of control | dose: 100.0 mg/kg/injection, schedule: Q04DX003 (ip), vehicle: acetone 109 % of control | [2] 93 % of control | dose: 200.0 mg/kg/injection, schedule: Q04DX003 (ip), vehicle: acetone 96 % of control | [3] 87 % of control | dose: 400.0 mg/kg/injection, schedule: Q04DX003 (ip), vehicle: acetone 103 % of control
